# How the values were obtained:
# [1] = target: T1, E. coli EDD (Escherichia coli, UniProt P0ADF6); test: LCMS/MS product assay; format: biochemical; details: pH 8.0, 30 °C, 100 mM Tris-HCl, 10 mM MgCl2, 1 mM DTT; 4.4 mM substrate; dehydration to KDPG
# T1 construct: full length, His-tagged (pET28), E. coli BL21(DE3), Ni-NTA
# T1 sequence (P0ADF6 1-603): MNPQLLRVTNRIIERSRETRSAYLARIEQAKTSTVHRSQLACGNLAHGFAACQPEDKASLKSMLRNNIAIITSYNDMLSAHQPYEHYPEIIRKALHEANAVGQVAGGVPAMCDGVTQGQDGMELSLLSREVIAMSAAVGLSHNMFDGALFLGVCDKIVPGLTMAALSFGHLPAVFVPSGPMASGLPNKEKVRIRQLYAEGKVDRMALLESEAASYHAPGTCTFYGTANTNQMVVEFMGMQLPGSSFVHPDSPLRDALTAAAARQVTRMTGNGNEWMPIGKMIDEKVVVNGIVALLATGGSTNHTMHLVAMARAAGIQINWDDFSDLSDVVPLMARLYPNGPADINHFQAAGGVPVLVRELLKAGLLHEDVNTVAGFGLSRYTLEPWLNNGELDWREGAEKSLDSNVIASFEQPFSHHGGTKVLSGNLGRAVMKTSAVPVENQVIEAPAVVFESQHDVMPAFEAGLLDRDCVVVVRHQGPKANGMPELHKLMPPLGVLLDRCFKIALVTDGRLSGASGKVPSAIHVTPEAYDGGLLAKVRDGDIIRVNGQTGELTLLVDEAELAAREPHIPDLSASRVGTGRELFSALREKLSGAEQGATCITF
# [2] = target: T2, GmEDA (soybean KDPG aldolase, pseudomature) (Glycine max, UniProt K7LFS1); test: LCMS/MS product assay, Lineweaver-Burk; format: biochemical; details: pH 8.0, 30 °C, 50 mM KH2PO4, 100 mM NaCl, 1 mM DTT; substrate 0.25-1 mM; aldol cleavage
# T2 construct: gene LOC100800025
# T2 sequence (K7LFS1 1-256): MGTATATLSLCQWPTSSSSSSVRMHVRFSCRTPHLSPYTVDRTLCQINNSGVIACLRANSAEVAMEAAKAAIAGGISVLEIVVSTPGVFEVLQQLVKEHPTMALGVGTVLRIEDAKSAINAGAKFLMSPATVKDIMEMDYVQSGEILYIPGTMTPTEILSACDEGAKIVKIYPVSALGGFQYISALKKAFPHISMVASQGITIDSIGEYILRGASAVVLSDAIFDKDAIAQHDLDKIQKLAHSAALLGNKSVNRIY
# [3] = target: T3, E. coli DHAD (Escherichia coli, UniProt P05791); test: LCMS/MS product assay; format: biochemical; details: pH 8.0, 30 °C, 100 mM Tris-HCl, 10 mM MgCl2, 1 mM DTT; 4.4 mM substrate; dehydration to 2-ketoisovalerate
# T3 construct: gene ilvD; full length, His-tagged (pET28), E. coli BL21(DE3), Ni-NTA
# T3 sequence (P05791 2-616): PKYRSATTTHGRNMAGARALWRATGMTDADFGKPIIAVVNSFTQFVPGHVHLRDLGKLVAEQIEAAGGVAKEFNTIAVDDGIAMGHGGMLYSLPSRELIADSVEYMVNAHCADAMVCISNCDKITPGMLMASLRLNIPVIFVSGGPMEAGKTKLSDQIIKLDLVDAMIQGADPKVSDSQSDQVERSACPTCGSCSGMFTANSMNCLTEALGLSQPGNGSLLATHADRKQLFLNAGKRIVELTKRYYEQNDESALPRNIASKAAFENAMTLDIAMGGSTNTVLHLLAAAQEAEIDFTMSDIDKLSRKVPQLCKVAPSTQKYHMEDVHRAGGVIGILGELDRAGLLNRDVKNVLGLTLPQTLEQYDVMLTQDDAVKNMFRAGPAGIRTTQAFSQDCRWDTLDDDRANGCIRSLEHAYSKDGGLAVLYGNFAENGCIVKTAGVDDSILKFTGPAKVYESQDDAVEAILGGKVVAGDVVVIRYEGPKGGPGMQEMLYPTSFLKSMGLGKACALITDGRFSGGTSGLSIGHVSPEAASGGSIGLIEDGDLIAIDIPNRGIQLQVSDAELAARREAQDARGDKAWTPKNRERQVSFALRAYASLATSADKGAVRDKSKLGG
# [4] = target: E. coli EDA (Escherichia coli, UniProt P0A955); details: pH 8.0, 30 °C, 50 mM KH2PO4, 100 mM NaCl, 1 mM DTT; aldol cleavage to GAP and pyruvate
# Sequence of E. coli EDA (P0A955 whole entry): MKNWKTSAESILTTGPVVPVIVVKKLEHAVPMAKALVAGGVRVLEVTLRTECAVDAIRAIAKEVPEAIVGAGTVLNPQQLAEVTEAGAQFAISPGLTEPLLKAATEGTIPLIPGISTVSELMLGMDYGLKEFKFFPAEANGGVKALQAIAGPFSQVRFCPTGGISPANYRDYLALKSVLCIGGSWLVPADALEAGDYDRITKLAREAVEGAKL
smiles,measurement,setting,value
O=C(O)[C@H](O)[C@@H](O)[C@H](O)[C@H](O)COP(=O)(O)O [6-PG],LCMS/MS product assay,[1],E. coli EDD catalyzed the expected dehydration of 6-PG to KDPG
"O=P(O)(O)OC[C@H]1OC(O)(COP(=O)(O)O)[C@@H](O)[C@@H]1O (stereo partly drawn) [D-fructose-1,6-bisphosphate]",Km,[2],1260 µM
CC(C)(O)[C@@H](O)C(=O)O [DIV],LCMS/MS product assay,[3],soybean and E. coli DHAD both converted DIV to its corresponding dehydration product
O=C(O)C(=O)C[C@H](O)[C@H](O)COP(=O)(O)O [KDPG],Km,[2],310 µM
same,LCMS/MS and GC-MS product assay,[4],enzymatic assay of soybean and E. coli EDA when KDPG was supplied as substrate
